In PMC5513037, “Examining the influence of specificity ligands and ATP-competitive ligands on the overall effectiveness of bivalent kinase inhibitors” (Proteome Science, 2017):

Assays:
Test in all cases: KAM-matrix competition in K562 lysate;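 as to 0.001 uM KAM: median log10 fold change of treatment over DMSO control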;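 as to 0.01 uM KAM: median log10 fold change of treatment over DMSO control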;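 as to 0.1 uM KAM: median log10 fold change of treatment over DMSO control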;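 as to 1 uM KAM: median log10 fold change of treatment over DMSO control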;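 as to 10 uM KAM: median log10 fold change of treatment over DMSO control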
Format in all cases: binding
UHMK1 = biological target: T1, UHMK1 (Homo sapiens, UniProt Q8TAS1);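 as to 0.001 uM KAM: median log10 fold change of treatment over DMSO control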;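 as to 0.01 uM KAM: median log10 fold change of treatment over DMSO control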;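 as to 0.1 uM KAM: median log10 fold change of treatment over DMSO control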;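 as to 1 uM KAM: median log10 fold change of treatment over DMSO control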;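 as to 10 uM KAM: median log10 fold change of treatment over DMSO control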
T1 construct: endogenous in cells; host or cells: K562
T1 sequence (Q8TAS1 1-419): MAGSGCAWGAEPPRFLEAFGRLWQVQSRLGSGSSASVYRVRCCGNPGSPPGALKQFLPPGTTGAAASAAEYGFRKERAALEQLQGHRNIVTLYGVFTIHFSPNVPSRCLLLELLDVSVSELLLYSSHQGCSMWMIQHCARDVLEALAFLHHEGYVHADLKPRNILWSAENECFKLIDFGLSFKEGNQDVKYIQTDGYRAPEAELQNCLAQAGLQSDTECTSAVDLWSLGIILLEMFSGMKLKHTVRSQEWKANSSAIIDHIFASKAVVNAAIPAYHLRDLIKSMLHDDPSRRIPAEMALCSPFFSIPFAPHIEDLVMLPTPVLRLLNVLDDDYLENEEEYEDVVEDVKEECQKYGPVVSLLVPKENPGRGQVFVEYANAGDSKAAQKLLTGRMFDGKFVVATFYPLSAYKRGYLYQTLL
Experimental: (§1) Supplement 12953_2017_125_MOESM1_ESM.zip/MS_Supp Info.xlsx, sheet "KAM" | column: 10 uM KAM; 1 uM KAM; 0.1 uM KAM; 0.01 uM KAM; 0.001 uM KAM; RB50

BLVRA = biological target: T2, BLVRA (Homo sapiens, UniProt P53004);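 as to 0.001 uM KAM: median log10 fold change of treatment over DMSO control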;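 as to 0.01 uM KAM: median log10 fold change of treatment over DMSO control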;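 as to 0.1 uM KAM: median log10 fold change of treatment over DMSO control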;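 as to 1 uM KAM: median log10 fold change of treatment over DMSO control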;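 as to 10 uM KAM: median log10 fold change of treatment over DMSO control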
T2 construct: endogenous in cells; host or cells: K562
T2 sequence (P53004 3-296): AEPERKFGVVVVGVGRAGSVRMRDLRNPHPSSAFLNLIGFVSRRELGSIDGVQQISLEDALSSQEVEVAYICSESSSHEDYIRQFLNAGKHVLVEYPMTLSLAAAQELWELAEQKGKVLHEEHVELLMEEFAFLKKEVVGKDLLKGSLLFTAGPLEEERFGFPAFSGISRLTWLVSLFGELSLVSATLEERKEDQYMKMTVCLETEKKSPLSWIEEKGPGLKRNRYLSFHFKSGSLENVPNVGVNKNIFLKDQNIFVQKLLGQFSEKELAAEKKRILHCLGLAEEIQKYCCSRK
Experimental: as §1

CIT = biological target: T3, CIT (Homo sapiens, UniProt O14578);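 as to 0.001 uM KAM: median log10 fold change of treatment over DMSO control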;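 as to 0.01 uM KAM: median log10 fold change of treatment over DMSO control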;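 as to 0.1 uM KAM: median log10 fold change of treatment over DMSO control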;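 as to 1 uM KAM: median log10 fold change of treatment over DMSO control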;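 as to 10 uM KAM: median log10 fold change of treatment over DMSO control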
T3 construct: endogenous in cells; host or cells: K562 lysate
T3 sequence (O14578 whole entry): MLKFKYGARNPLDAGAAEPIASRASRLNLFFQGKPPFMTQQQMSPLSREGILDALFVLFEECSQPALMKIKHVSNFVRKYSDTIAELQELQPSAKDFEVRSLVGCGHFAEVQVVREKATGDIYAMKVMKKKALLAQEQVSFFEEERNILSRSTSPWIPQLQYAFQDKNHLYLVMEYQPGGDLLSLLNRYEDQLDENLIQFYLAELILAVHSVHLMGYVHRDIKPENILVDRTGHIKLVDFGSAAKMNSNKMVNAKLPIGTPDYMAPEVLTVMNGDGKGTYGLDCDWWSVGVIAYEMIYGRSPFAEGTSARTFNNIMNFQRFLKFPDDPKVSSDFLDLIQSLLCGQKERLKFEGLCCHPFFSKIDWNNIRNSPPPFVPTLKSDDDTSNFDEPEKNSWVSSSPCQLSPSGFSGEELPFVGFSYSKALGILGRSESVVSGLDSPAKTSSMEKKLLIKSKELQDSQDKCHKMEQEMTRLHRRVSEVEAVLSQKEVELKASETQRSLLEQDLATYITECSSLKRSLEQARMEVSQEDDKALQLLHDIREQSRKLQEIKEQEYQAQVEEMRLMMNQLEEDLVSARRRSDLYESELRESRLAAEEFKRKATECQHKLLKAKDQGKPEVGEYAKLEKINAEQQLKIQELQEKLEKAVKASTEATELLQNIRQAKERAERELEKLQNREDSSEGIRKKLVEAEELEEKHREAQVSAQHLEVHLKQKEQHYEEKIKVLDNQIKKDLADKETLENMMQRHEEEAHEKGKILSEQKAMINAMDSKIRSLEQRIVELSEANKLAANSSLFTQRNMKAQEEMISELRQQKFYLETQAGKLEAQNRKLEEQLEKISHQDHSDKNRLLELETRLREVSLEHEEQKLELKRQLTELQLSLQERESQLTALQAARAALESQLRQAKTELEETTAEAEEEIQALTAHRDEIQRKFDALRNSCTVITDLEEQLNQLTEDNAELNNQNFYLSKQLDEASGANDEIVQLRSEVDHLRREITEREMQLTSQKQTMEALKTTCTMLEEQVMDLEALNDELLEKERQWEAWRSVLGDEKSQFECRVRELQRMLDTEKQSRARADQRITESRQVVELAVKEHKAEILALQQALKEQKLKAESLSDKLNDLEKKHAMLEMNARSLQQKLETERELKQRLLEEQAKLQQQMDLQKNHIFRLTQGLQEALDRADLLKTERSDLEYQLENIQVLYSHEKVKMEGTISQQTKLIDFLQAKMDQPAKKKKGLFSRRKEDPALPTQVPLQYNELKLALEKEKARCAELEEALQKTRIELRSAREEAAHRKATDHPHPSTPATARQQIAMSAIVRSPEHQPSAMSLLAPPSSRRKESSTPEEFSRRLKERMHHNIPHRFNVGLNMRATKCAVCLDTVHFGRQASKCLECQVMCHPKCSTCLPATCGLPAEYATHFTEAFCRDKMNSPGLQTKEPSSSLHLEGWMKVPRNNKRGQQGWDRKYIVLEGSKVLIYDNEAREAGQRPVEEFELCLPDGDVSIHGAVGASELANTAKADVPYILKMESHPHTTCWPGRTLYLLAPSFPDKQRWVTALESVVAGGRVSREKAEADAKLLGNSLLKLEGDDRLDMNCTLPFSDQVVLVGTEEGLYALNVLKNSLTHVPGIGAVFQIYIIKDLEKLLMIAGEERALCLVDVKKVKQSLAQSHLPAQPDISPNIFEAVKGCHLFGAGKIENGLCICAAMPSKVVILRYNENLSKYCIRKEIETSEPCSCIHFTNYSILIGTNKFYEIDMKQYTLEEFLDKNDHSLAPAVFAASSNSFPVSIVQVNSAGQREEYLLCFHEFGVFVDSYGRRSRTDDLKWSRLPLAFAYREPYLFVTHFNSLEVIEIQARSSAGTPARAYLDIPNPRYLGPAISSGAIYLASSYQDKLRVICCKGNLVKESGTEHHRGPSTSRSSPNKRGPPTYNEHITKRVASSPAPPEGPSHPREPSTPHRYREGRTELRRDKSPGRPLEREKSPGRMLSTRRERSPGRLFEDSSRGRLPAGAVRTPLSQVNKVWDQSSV
Experimental: as §1

TP53RK = biological target: T4, TP53RK (Homo sapiens, UniProt Q96S44);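 as to 0.001 uM KAM: median log10 fold change of treatment over DMSO control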;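 as to 0.01 uM KAM: median log10 fold change of treatment over DMSO control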;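 as to 0.1 uM KAM: median log10 fold change of treatment over DMSO control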;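 as to 1 uM KAM: median log10 fold change of treatment over DMSO control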;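 as to 10 uM KAM: median log10 fold change of treatment over DMSO control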
T4 construct: endogenous in cells; host or cells: K562
T4 sequence (Q96S44 1-253): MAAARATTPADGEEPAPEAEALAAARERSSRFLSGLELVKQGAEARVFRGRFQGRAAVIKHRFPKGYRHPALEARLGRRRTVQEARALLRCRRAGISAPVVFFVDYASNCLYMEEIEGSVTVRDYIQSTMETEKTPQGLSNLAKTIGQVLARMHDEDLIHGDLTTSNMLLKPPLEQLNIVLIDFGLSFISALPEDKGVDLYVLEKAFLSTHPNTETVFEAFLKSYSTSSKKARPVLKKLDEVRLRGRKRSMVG
Experimental: as §1

HIPK1 = biological target: T5, HIPK1 (Homo sapiens, UniProt Q86Z02)
T5 construct: endogenous in cells; host or cells: K562
Experimental: as §1

PRKCA = biological target: T6, PRKCA (Homo sapiens, UniProt P17252)
T6 construct: endogenous in cells; host or cells: K562 lysate
Experimental: as §1

PBK = biological target: T7, PBK (Homo sapiens, UniProt Q96KB5);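 as to 0.001 uM KAM: median log10 fold change of treatment over DMSO control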;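 as to 0.01 uM KAM: median log10 fold change of treatment over DMSO control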;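 as to 0.1 uM KAM: median log10 fold change of treatment over DMSO control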;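 as to 1 uM KAM: median log10 fold change of treatment over DMSO control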;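 as to 10 uM KAM: median log10 fold change of treatment over DMSO control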
T7 construct: endogenous in cells; host or cells: K562
T7 sequence (Q96KB5 1-322): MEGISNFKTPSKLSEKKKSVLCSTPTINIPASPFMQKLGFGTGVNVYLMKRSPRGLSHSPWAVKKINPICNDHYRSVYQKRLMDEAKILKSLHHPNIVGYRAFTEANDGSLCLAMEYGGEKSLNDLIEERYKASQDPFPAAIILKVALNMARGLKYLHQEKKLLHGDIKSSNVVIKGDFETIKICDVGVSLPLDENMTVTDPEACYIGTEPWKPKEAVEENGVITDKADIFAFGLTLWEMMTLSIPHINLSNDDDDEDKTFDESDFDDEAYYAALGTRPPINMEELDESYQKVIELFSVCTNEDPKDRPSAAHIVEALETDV
Experimental: as §1

WNK1 = biological target: T8, WNK1 (Homo sapiens, UniProt Q9H4A3);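 as to 0.001 uM KAM: median log10 fold change of treatment over DMSO control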;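 as to 0.01 uM KAM: median log10 fold change of treatment over DMSO control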;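 as to 0.1 uM KAM: median log10 fold change of treatment over DMSO control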;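 as to 1 uM KAM: median log10 fold change of treatment over DMSO control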;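 as to 10 uM KAM: median log10 fold change of treatment over DMSO control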
T8 construct: endogenous in cells; host or cells: K562
T8 sequence (Q9H4A3 whole entry): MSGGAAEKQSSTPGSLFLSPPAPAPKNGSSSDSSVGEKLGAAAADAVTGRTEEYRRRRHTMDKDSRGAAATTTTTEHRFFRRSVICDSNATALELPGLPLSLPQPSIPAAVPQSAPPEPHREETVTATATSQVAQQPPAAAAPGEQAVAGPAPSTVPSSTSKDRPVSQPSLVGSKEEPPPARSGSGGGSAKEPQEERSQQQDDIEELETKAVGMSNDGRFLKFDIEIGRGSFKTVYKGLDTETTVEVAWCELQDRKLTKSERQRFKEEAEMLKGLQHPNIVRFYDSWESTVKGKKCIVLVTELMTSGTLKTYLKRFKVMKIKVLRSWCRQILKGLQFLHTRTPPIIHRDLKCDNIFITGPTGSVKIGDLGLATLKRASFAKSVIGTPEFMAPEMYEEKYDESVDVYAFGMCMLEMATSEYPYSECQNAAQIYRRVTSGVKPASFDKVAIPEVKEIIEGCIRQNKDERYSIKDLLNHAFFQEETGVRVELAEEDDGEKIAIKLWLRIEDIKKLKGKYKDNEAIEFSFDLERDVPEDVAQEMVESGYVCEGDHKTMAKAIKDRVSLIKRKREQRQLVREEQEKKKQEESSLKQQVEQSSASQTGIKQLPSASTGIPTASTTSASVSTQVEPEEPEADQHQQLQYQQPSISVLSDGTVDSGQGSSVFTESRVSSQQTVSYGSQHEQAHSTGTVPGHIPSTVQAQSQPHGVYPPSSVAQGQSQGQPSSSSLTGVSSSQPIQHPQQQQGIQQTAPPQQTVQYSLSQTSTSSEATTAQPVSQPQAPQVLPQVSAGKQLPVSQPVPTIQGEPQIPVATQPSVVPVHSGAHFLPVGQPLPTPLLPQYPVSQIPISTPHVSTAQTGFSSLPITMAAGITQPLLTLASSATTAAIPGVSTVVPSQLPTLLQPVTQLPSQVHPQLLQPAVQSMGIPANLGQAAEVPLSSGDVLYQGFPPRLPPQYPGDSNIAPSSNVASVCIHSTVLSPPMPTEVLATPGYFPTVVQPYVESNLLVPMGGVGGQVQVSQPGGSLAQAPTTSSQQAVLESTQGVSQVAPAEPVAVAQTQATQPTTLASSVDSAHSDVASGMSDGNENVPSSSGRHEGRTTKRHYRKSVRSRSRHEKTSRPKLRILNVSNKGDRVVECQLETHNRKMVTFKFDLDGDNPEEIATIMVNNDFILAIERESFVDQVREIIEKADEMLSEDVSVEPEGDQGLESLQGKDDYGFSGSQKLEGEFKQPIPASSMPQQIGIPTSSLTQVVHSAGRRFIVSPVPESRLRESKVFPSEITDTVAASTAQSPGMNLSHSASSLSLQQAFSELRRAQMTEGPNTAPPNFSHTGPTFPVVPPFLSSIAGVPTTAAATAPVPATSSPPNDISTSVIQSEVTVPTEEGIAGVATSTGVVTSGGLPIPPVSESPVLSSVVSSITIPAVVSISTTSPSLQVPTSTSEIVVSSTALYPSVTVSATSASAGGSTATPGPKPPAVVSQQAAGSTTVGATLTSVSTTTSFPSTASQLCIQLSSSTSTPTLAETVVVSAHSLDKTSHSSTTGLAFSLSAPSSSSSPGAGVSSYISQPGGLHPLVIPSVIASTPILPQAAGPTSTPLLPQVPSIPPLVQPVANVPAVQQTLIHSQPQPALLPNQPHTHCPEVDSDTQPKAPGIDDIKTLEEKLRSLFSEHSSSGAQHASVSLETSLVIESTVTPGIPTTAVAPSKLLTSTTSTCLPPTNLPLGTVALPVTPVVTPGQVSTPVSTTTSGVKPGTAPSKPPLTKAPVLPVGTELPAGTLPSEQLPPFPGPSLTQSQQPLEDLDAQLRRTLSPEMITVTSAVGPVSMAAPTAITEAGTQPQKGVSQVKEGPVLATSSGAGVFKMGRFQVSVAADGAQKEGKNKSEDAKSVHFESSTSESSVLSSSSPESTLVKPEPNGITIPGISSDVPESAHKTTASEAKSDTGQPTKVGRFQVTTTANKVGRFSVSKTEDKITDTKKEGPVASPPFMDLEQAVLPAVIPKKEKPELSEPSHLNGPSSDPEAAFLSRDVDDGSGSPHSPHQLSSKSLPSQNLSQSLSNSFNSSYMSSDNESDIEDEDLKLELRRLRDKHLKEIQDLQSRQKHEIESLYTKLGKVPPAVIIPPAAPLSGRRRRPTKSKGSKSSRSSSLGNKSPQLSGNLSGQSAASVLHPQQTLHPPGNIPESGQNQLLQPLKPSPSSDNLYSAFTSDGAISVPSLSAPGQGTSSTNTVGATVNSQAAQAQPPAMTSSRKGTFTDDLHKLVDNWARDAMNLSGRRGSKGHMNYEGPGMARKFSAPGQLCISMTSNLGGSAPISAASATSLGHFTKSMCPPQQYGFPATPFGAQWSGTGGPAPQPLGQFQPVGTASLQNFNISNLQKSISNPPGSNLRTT
Experimental: as §1

[1] = KAM 0.001-10 uM, read-out: RB50 (the source's name)
[2] = read-out: RB50 (the source's name)

N#CCc1ccc(Nc2nc(NCCCN)cc(Nc3cc(C4CC4)[nH]n3)n2)cc1 [KAM]
IC50 (UHMK1; [1]): > 10 µM | 0.001 uM KAM (UHMK1; relative to 0 uM KAM = 0): -0.05175 | 0.01 uM KAM (UHMK1; relative to 0 uM KAM = 0): -0.019 | 0.1 uM KAM (UHMK1; relative to 0 uM KAM = 0): 0.009765 | 1 uM KAM (UHMK1; relative to 0 uM KAM = 0): -0.08212 | 10 uM KAM (UHMK1; relative to 0 uM KAM = 0): -0.08774 | IC50 (BLVRA; [1]): > 10 µM | 0.001 uM KAM (BLVRA; relative to 0 uM KAM = 0): 0.01315 | 0.01 uM KAM (BLVRA; relative to 0 uM KAM = 0): 0.09211 | 0.1 uM KAM (BLVRA; relative to 0 uM KAM = 0): 0.1192 | 1 uM KAM (BLVRA; relative to 0 uM KAM = 0): 0.1811 | 10 uM KAM (BLVRA; relative to 0 uM KAM = 0): 0.1365 | IC50 (CIT; [1]): > 10 µM | 0.001 uM KAM (CIT; relative to 0 uM KAM = 0): -0.03357 | 0.01 uM KAM (CIT; relative to 0 uM KAM = 0): -0.05687 | 0.1 uM KAM (CIT; relative to 0 uM KAM = 0): -0.1025 | 1 uM KAM (CIT; relative to 0 uM KAM = 0): -0.03677 | 10 uM KAM (CIT; relative to 0 uM KAM = 0): -0.04946 | IC50 (TP53RK; [1]): > 10 µM | 0.001 uM KAM (TP53RK; relative to 0 uM KAM = 0): 0.009964 | 0.01 uM KAM (TP53RK; relative to 0 uM KAM = 0): 0.004194 | 0.1 uM KAM (TP53RK; relative to 0 uM KAM = 0): 0.08221 | 1 uM KAM (TP53RK; relative to 0 uM KAM = 0): 0.04146 | 10 uM KAM (TP53RK; relative to 0 uM KAM = 0): -0.01189 | median Log10 fold change (HIPK1; 0.001 uM KAM): 0.007007 | median Log10 fold change (HIPK1; 0.01 uM KAM): -0.007344 | median Log10 fold change (HIPK1; 0.1 uM KAM): -0.151 | median Log10 fold change (HIPK1; 1 uM KAM): -0.3582 | median Log10 fold change (HIPK1; 10 uM KAM): -0.4749 | IC50 (HIPK1; [2]): 0.77 µM | median Log10 fold change (PRKCA; 0.001 uM KAM): -0.02328 | median Log10 fold change (PRKCA; 0.01 uM KAM): -0.03535 | median Log10 fold change (PRKCA; 0.1 uM KAM): -0.1377 | median Log10 fold change (PRKCA; 1 uM KAM): -0.1636 | median Log10 fold change (PRKCA; 10 uM KAM): -0.4501 | IC50 (PRKCA; [2]): 3.16 µM | IC50 (PBK; [1]): > 10 µM | 0.001 uM KAM (PBK; relative to 0 uM KAM = 0): 0.04398 | 0.01 uM KAM (PBK; relative to 0 uM KAM = 0): 0.009269 | 0.1 uM KAM (PBK; relative to 0 uM KAM = 0): 0.0383 | 1 uM KAM (PBK; relative to 0 uM KAM = 0): 0.01738 | 10 uM KAM (PBK; relative to 0 uM KAM = 0): 0.0482 | IC50 (WNK1; [1]): > 10 µM | 0.001 uM KAM (WNK1; relative to 0 uM KAM = 0): -0.03013 | 0.01 uM KAM (WNK1; relative to 0 uM KAM = 0): -0.03259 | 0.1 uM KAM (WNK1; relative to 0 uM KAM = 0): -0.03066 | 1 uM KAM (WNK1; relative to 0 uM KAM = 0): 0.00603 | 10 uM KAM (WNK1; relative to 0 uM KAM = 0): -0.05865
